Test results taken from patent US12568967B2, “Compositions comprising pyridine carboxylate herbicides with synthetic auxin herbicides or auxin transport inhibitors” (priority 2018, dated 2026).

Tests used:
[1] = tested on: Ipomoea hederacea (ivyleaf morningglory, IPOHE); test: Greenhouse postemergence trial IPOHE; type: in vivo; conditions: Dichlorprop-K 280 g/ha (Table 40)
Experimental: (§1) Seeds of the desired test plant species were planted in a 90:10% v/v (volume/volume) mixture of PRO-MIX® BX (Premier Tech Horticulture, Quakertown, PA, USA) and PROFILE® GREENS GRADE™ (Profile Products LLC, Buffalo Grove, IL, USA) planting mixture, which typically has a pH of 5.2 to 6.2 and an organic matter content of at least 50 percent, in plastic pots with a surface area of 103.2 square centimeters (cm^2). […] The plants were grown for 7-36 days (d) in a greenhouse with an approximate 14-hour (h) photo-period which was maintained at about 23° C. during the day and 22° C. during the night. Nutrients and water were added on a regular basis and supplemental lighting was provided with overhead metal halide 1000-Watt lamps as necessary. The plants were employed for testing when they reached the second or third true leaf stage.
(§2) Emulsifiable concentrates of each of each pyridine carboxylate herbicide (Compound A or Compound B) were prepared at 100 grams acid equivalent per liter (g ae/L). The emulsifiable concentrates also included a safener, cloquintocet-mexyl, at 120 grams active ingredient per liter (g ai/L), unless otherwise noted below. An aliquot of each emulsifiable concentrate was placed in a 25 mL glass vial and diluted with an aqueous mixture of 1.25% (v/v) ACTIROB® B esterified rapeseed oil (Bayer Crop Science, Research Triangle Park, NC, USA) or MSO® Concentrate with LECI-TECH® methylated soybean oil (Loveland Products, Loveland, CO, USA) to obtain concentrated stock solutions at the highest application rate for each herbicide, based upon a 12 milliliter (mL) application volume at a rate of 187 liters per hectare (L/ha). The concentrated stock solutions were further diluted with an aqueous mixture of 1.25% v/v ACTIROB® B or MSO® Concentrate with LECI-TECH® to obtain stock solutions at reduced application rates for each herbicide. Spray solutions of the herbicide combinations (Compound A or Compound B plus synthetic auxin herbicide or auxin transport inhibitor) were prepared by adding weighed amounts or aliquots of the synthetic auxin herbicide or auxin transport inhibitor to the stock solutions of Compound A or Compound B to form 12-mL spray solutions in two-way combinations.
(§3) The spray solutions were applied to the plant material with an overhead Mandel track sprayer equipped with 8002E nozzles calibrated to deliver 187 L/ha over an application area of 0.503 square meters (m^2) at a spray height of 18 inches (43 centimeters (cm)) above the average plant canopy. Control plants were sprayed in the same manner with the solvent blank. All pyridine carboxylate herbicide (component a) application rates are given as “g ae/ha” and all synthetic auxin herbicide or auxin transport inhibitor (component b) application rates are given as “g ai/ha.”
(§4) The treated plants and control plants were placed in a greenhouse as described above and watered by sub-irrigation to prevent wash-off of the test compounds. After 20-22 d, the condition of the test plants as compared with that of the control plants was determined visually and scored on a scale of 0 to 100 percent where 0 corresponds to no injury and 100 corresponds to complete kill.

[2] = tested on: Cirsium arvense (Canadian thistle, CIRAR); test: Greenhouse postemergence trial CIRAR; type: in vivo
[3] = tested on: Glycine max (volunteer soybean, GLXMA); test: Greenhouse postemergence trial GLXMA; type: in vivo; conditions: Dichlorprop-K 280 g/ha (Table 40)
Experimental: as §1, §2, §3, §4

[4] = tested on: Rumex obtusifolius (broad-leaf dock, RUMOB); test: Greenhouse postemergence trial RUMOB; type: in vivo
Experimental: as §1, §2, §3, §4

[5] = tested on: Polygonum convolvulus (wild buckwheat, POLCO); test: Greenhouse postemergence trial POLCO; type: in vivo
[6] = tested on: Matricaria chamomilla (wild chamomile, MATCH); test: Greenhouse postemergence trial MATCH; type: in vivo; conditions: MATCH;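 further: greenhouse plants sprayed at second to third true leaf stage, injury rated by eye 20-22 d later versus solvent-blank controls on 0–100 scale, 0 no injury, 100 complete kill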
[7] = tested on: Sinapis arvensis (wild mustard, SINAR); test: Greenhouse postemergence trial SINAR; type: in vivo; conditions: SINAR
[8] = tested on: Amaranthus retroflexus (pigweed, AMARE); test: Greenhouse postemergence trial AMARE; type: in vivo;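 further: Greenhouse-grown plants sprayed at second to third true leaf stage, injury rated by eye after 20-22 d versus solvent-blank sprayed controls, 0 = no injury, 100 = complete kill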
[9] = tested on: Kochia scoparia (kochia, KCHSC); test: Greenhouse postemergence trial KCHSC; type: in vivo
[10] = tested on: Helianthus annuus (common sunflower, HELAN); test: Greenhouse postemergence trial HELAN; type: in vivo; conditions: Dichlorprop-K 280 g/ha (Table 40)
[11] = tested on: Brassica napus (winter rape, BRSNW); test: Greenhouse postemergence trial BRSNW; type: in vivo
Experimental: as §1, §2, §3, §4

[12] = tested on: Chenopodium album L. (common lambsquarters, CHEAL); test: Greenhouse postemergence trial CHEAL; type: in vivo;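 further: greenhouse plants sprayed at second to third true leaf stage, injury rated by eye after 20-22 d versus solvent-blank sprayed controls, 0 = no injury, 100 = complete kill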
Experimental: (§5) The plants were grown for 7-36 days (d) in a greenhouse with an approximate 14-hour (h) photo-period which was maintained at about 23° C. during the day and 22° C. during the night. Nutrients and water were added on a regular basis and supplemental lighting was provided with overhead metal halide 1000-Watt lamps as necessary. The plants were employed for testing when they reached the second or third true leaf stage.
(§6) The emulsifiable concentrates also included a safener, cloquintocet-mexyl, at 120 grams active ingredient per liter (g ai/L), unless otherwise noted below.
(§7) Control plants were sprayed in the same manner with the solvent blank. All pyridine carboxylate herbicide (component a) application rates are given as “g ae/ha” and all synthetic auxin herbicide or auxin transport inhibitor (component b) application rates are given as “g ai/ha.”
as §4

[13] = tested on: Stellaria media (chickweed, STEME); test: Greenhouse postemergence trial STEME; type: in vivo
Experimental: as §1, §2, §3, §4

[14] = tested on: Abutilon theophrasti (velvetleaf, ABUTH); test: Greenhouse postemergence trial ABUTH; type: in vivo; conditions: Dichlorprop-K 280 g/ha (Table 40)
Experimental: as §1, §2, §3, §4

[15] = tested on: Viola tricolor (wild pansy, VIOTR); test: Greenhouse postemergence trial VIOTR;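 further: greenhouse plants sprayed at second to third true leaf stage, injury rated visually after 20-22 d against solvent-blank sprayed controls, 0 meaning no injury and 100 complete kill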
[16] = tested on: Papaver rhoeas (corn poppy, PAPRH); test: Greenhouse postemergence trial PAPRH; type: in vivo; conditions: Papaver rhoeas, post-emergence, read-out: % visual injury Obs
Experimental: as §1, §2, §3, §4

[17] = tested on: Brassica napus (spring rape, BRSNN); test: Greenhouse postemergence trial BRSNN; type: in vivo; conditions: c2-3 Compound A 7.5/10; c4 Florpyrauxifen-benzyl 10; c5-6 A 7.5/10 + Florpyrauxifen-benzyl 10 g/ha
[18] = tested on: Hordeum vulgare (spring barley, HORVS); type: in vivo; conditions: HORVS; Florpyrauxifen-benzyl 20 g/ha
[19] = tested on: Veronica hederifolia (ivyleaf speedwell, VERHE); test: Greenhouse postemergence trial VERHE; type: in vivo; conditions: Veronica hederifolia, post-emergence, read-out: % visual injury Obs
Experimental: as §1, §2, §3, §4

[20] = tested on: Triticum aestivum (winter wheat, TRZAW); test: Greenhouse postemergence crop phytotoxicity TRZAW; type: in vivo; conditions: TRZAW; Florpyrauxifen-benzyl 20 g/ha
[21] = tested on: Matricaria inodora (false chamomile, MATIN); test: Greenhouse postemergence trial MATIN; type: in vivo; conditions: Tripleurospermum inodorum, post-emergence, read-out: % visual injury Obs
Experimental: as §1, §2, §3, §4

[22] = tested on: Matricaria discoidea (pineapple weed, MATMT); test: Greenhouse postemergence trial MATMT; type: in vivo; conditions: Matricaria discoidea, post-emergence, read-out: % visual injury Obs
Experimental: as §1, §2, §3, §4

[23] = tested on: Cyanus segetum (cornflower, CENCY); test: Greenhouse postemergence trial CENCY; type: in vivo; conditions: Centaurea cyanus, post-emergence, read-out: % visual injury Obs
Experimental: as §1, §2, §3, §4

[24] = tested on: Anthemis arvensis (field chamomile, ANTAR); test: Greenhouse postemergence trial ANTAR; type: in vivo; conditions: Anthemis arvensis, post-emergence, read-out: % visual injury Obs
[25] = tested on: Lamium purpureum (purple deadnettle, LAMPU); test: Greenhouse postemergence trial LAMPU; conditions: Lamium purpureum, post-emergence, read-out: % visual injury Obs
[26] = tested on: Veronica persica (bird's-eye speedwell, VERPE); test: Greenhouse postemergence trial VERPE; type: in vivo; conditions: Veronica persica, post-emergence, read-out: % visual injury Obs
[27] = tested on: Viola arvensis (field violet, VIOAR); test: Greenhouse postemergence trial VIOAR; type: in vivo; conditions: Viola arvensis, post-emergence, read-out: % visual injury Obs
[28] = tested on: Capsella bursa-pastoris (shepherd's purse, CAPBP); test: Greenhouse postemergence trial CAPBP; type: in vivo; conditions: Capsella bursa-pastoris, post-emergence, read-out: % visual injury Obs
[29] = tested on: Salsola kali (Russian thistle, SASKR); test: Greenhouse postemergence trial SASKR; type: in vivo; conditions: Salsola kali, post-emergence; SASKR; Florpyrauxifen-benzyl 20 g/ha; read-out: % visual injury Obs;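 further: greenhouse plants sprayed at second or third true leaf stage, injury rated by eye after 20-22 d against solvent-blank controls, 0 meaning no injury, 100 complete kill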
Experimental: as §5, §6, §7, §4

[30] = tested on: Papaver rhoeas (corn poppy), herbicide-resistant (PAPRH-R); test: Greenhouse postemergence trial PAPRH-R; type: in vivo; conditions: Papaver rhoeas, post-emergence, read-out: % visual injury Obs
Experimental: as §1, §2, §3, §4

[31] = tested on: Triticum aestivum (spring wheat, TRZAS); type: in vivo; conditions: TRZAS; Florpyrauxifen-benzyl 20 g/ha
Experimental: as §1, §2, §3, §4

[32] = tested on: Hordeum vulgare (winter barley, HORVW); test: Greenhouse postemergence crop phytotoxicity HORVW; type: in vivo; conditions: HORVW; Florpyrauxifen-benzyl 20 g/ha
[33] = Dichlorprop-K 280 g/ha (Table 40)

`CC(Oc1ccc(Cl)cc1Cl)C(=O)[O-].[K+]` (stereo not shown) [Dichlorprop-K] was tested. Which “IPOHE % visual injury Obs” value [1] did it give?
The value was 75%.

And the “% visual injury (Obs)” value ([2]; CIRAR, alone 280 g/ha)?
Its value is 15%.

And the “CIRAR % visual injury Obs” value [2, 33]?
The value was 63%.

And the “GLXMA % visual injury Obs” value [3]?
The value was 33%.

What about the “RUMOB % visual injury Obs” value [4, 33] of the same molecule?
Its value is 73%.

What about the “POLCO % visual injury Obs” value [5, 33] of the same molecule?
The value was 0%.

What about the “% visual injury (Obs)” value ([5]; POLCO, alone 280 g/ha) of the same molecule?
The value was 18%.

What about the “% visual injury (Obs)” value ([6]; alone 280 g/ha) of the same molecule?
The value was 20%.

What about the “% visual injury (Obs)” value ([7]; alone 280 g/ha) of the same molecule?
The value was 78%.

What about the “% visual injury (Obs)” value ([8]; AMARE, alone 280 g/ha) of the same molecule?
Its value is 85%.

What about the “AMARE % visual injury Obs” value [8, 33] of the same molecule?
The value was 10%.

What about the “KCHSC % visual injury Obs” value [9, 33] of the same molecule?
The value was 63%.

And the “% visual injury (Obs)” value ([9]; KCHSC, alone 280 g/ha)?
The value was 60%.

And the “HELAN % visual injury Obs” value [10]?
Its value is 90%.

And the “% visual injury (Obs)” value ([11]; BRSNW, alone 280 g/ha)?
The value was 63%.

What about the “% visual injury (Obs)” value ([12]; CHEAL, alone 280 g/ha) of the same molecule?
Its value is 70%.

And the “CHEAL % visual injury Obs” value [12, 33]?
The value was 60%.

What about the “STEME % visual injury Obs” value [13, 33] of the same molecule?
The value was 0%.

What about the “ABUTH % visual injury Obs” value [14] of the same molecule?
Its value is 40%.

And the “VIOTR % visual injury Obs” value [15, 33]?
Its value is 65%.

How did the pest or weed control at 20 g/ha ([2]; Cirsium arvense, post-emergence, CIRAR, Florpyrauxifen-benzyl 20 g/ha, read-out: % visual injury Obs) turn out when `COc1c(Cl)ccc(-c2nc(C(=O)OCc3ccccc3)c(Cl)c(N)c2F)c1F` [Florpyrauxifen-benzyl, florpyrauxifen-benzyl, reference compound] was run?
The pest or weed control at 20 g/ha was 70%.

What about the pest or weed control at 20 g/ha [16] of the same molecule?
Its pest or weed control at 20 g/ha is 70%.

And the “% visual injury, Obs” value [17]?
Its value is 25%.

And the “% visual injury, Obs” value ([4]; c2-3 Compound A 7.5/10, c4 Florpyrauxifen-benzyl 10, c5-6 A 7.5/10 + Florpyrauxifen-benzyl 10 g/ha)?
The value was 33%.

What about the “% visual injury Obs” value [18] of the same molecule?
Its value is 0%.

And the pest or weed control at 20 g/ha ([5]; Fallopia convolvulus, post-emergence, read-out: % visual injury Obs)?
The pest or weed control at 20 g/ha was 85%.

And the pest or weed control at 20 g/ha [19]?
Its pest or weed control at 20 g/ha is 20%.

And the pest or weed control at 20 g/ha ([6]; Matricaria chamomilla, post-emergence, Florpyrauxifen-benzyl 20 g/ha, read-out: % visual injury Obs)?
Its pest or weed control at 20 g/ha is 35%.

What about the “% visual injury Obs” value [20] of the same molecule?
Its value is 0%.

And the pest or weed control at 20 g/ha [21]?
Its pest or weed control at 20 g/ha is 50%.

And the pest or weed control at 20 g/ha [22]?
The pest or weed control at 20 g/ha was 50%.

What about the pest or weed control at 20 g/ha ([7]; Mutarda arvensis, post-emergence, Florpyrauxifen-benzyl 20 g/ha, read-out: % visual injury Obs) of the same molecule?
The pest or weed control at 20 g/ha was 90%.

And the pest or weed control at 20 g/ha [23]?
The pest or weed control at 20 g/ha was 100%.

What about the pest or weed control at 20 g/ha [24] of the same molecule?
Its pest or weed control at 20 g/ha is 100%.

And the pest or weed control at 20 g/ha [25]?
The pest or weed control at 20 g/ha was 97%.

What about the pest or weed control at 20 g/ha [26] of the same molecule?
The pest or weed control at 20 g/ha was 10%.

What about the pest or weed control at 20 g/ha [27] of the same molecule?
Its pest or weed control at 20 g/ha is 10%.

What about the pest or weed control at 20 g/ha [28] of the same molecule?
The pest or weed control at 20 g/ha was 80%.

What about the pest or weed control at 20 g/ha ([9]; Bassia scoparia, post-emergence, KCHSC, Florpyrauxifen-benzyl 20 g/ha, read-out: % visual injury Obs) of the same molecule?
The pest or weed control at 20 g/ha was 65%.

What about the pest or weed control at 20 g/ha [29] of the same molecule?
The pest or weed control at 20 g/ha was 70%.

What about the plant injury at 20 g/ha ([11]; Brassica napus, post-emergence, read-out: % visual injury Obs) of the same molecule?
The plant injury at 20 g/ha was 40%.

And the pest or weed control at 20 g/ha [30]?
The pest or weed control at 20 g/ha was 60%.

What about the pest or weed control at 20 g/ha ([13]; Stellaria media, post-emergence, read-out: % visual injury Obs) of the same molecule?
Its pest or weed control at 20 g/ha is 100%.

And the “% visual injury Obs” value [31]?
The value was 0%.

And the “% visual injury Obs” value [32]?
The value was 0%.

And the pest or weed control at 20 g/ha ([15]; Viola tricolor, post-emergence, read-out: % visual injury Obs)?
Its pest or weed control at 20 g/ha is 70%.
